# From ChEMBL document CHEMBL1130825, “Novel D-ring analogues of podophyllotoxin as potent anti-cancer agents” (1998)
# Experiments:
# Format in all cases: functional
# [1] = test system: COLO 205; test: In vitro cytotoxicity against human colon cancer COLO 205 cell line
# [2] = test system: HCT-15; test: In vitro cytotoxicity against human colon cancer HCT 15 cell line
# [3] = test system: HCT-116; test: In vitro cytotoxicity against human colon cancer HCT 116 cell line
# [4] = test system: HCC 2998; test: In vitro cytotoxicity against human colon cancer HCC 2998 cell line
# [5] = test system: HT-29; test: In vitro cytotoxicity against human colon cancer HT 29 cell line
# [6] = test system: KM12; test: In vitro cytotoxicity against human colon cancer KM 12 cell line
# [7] = test system: A498; test: in vitro cytotoxicity against A 498 cancer cell line; details: Homo sapiens
# [8] = test system: BT-549; test: In vitro cytotoxicity against human breast cancer BT-549 cell line
# [9] = test system: DU-145; test: in vitro cytotoxicity against DU-145 cancer cell line; details: Homo sapiens
# [10] = test system: Hs-578T; test: In vitro cytotoxicity against human breast cancer Hs 578.T cell line
# [11] = test system: MCF7; test: In vitro cytotoxicity against human breast cancer MCF-7 cell line
# [12] = test system: M14; test: in vitro cytotoxicity against M-14 cancer cell line; details: Homo sapiens
# [13] = test system: MDA-MB-231; test: In vitro cytotoxicity against human breast cancer MDA-MB 231 cell line
# [14] = test system: MDA-MB-435; test: In vitro cytotoxicity against human breast cancer MDA-MB 435 cell line
# [15] = test system: MDA-N; test: In vitro cytotoxicity against human breast cancer MDA-N cell line
# [16] = test system: SW-620; test: In vitro cytotoxicity against human colon cancer SW 620 cell line
# [17] = test system: SK-OV-3; test: in vitro cytotoxicity against SKOV3 cancer cell line; details: Homo sapiens
# [18] = In vitro cytotoxicity against human breast cancer MCF-7 ADR cell line; details: MCF7
# [19] = test system: MCF7; test: in vitro cytotoxicity against MCF-7 ADR cancer cell line; details: Homo sapiens
# [20] = test system: SK-OV-3; test: Compound was evaluated for in vitro cytotoxicity against SKOV3 cancer cell line; details: Homo sapiens
Compound,GI50 [1] [nM],GI50 [2] [nM],GI50 [3] [nM],GI50 [4] [nM],GI50 [5] [nM],GI50 [6] [nM],GI50 [7] [nM],GI50 [8] [nM],GI50 [9] [nM],GI50 [10] [nM],GI50 [11] [nM],GI50 [12] [nM],GI50 [13] [nM],GI50 [14] [nM],GI50 [15] [nM],GI50 [16] [nM],GI50 [17] [nM],GI50 [18] [nM],GI50 [19] [nM],GI50 [20] [nM]
COC(=O)[C@@H]1C(c2cc(OC)c(OC)c(OC)c2)c2cc3c(cc2[C@@H]2OC(=O)OC[C@@H]12)OCO3 (some centres not stated),2000,10000,> 30000,20000,> 30000,70000,–,–,–,–,–,–,–,–,–,–,–,–,–,–
CCOC(=O)[C@@H]1C(c2cc(OC)c(OC)c(OC)c2)c2cc3c(cc2[C@@H]2OC(=O)OC[C@@H]12)OCO3 (some centres not stated),1500,200,90,8000,2000,6000,–,–,–,–,–,–,–,–,–,–,–,–,–,–
CCOC(=O)[C@@H]1[C@H](c2cc(OC)c(O)c(OC)c2)c2cc3c(cc2[C@@H]2OC(=O)OC[C@@H]12)OCO3,30000,400,600,1500,200,200,–,–,–,–,–,–,–,–,–,–,–,–,–,–
CCOC(=O)[C@@H]1[C@H](c2cc(OC)c(O)c(OC)c2)c2cc3c(cc2[C@H](O)[C@H]1CO)OCO3,1160,2070,1700,1300,880,780,1100,4910,1630,1200,2170,2100,6780,840,1060,1170,3350,–,–,–
CCCCOC(=O)[C@@H]1[C@H](c2cc(OC)c(OC)c(OC)c2)c2cc3c(cc2[C@H](O)[C@H]1CO)OCO3,1900,2000,3700,1800,2500,1860,–,> 30000,–,–,2000,–,> 30000,1600,11500,2200,–,5600,–,–
CCOC(=O)[C@@H]1[C@H](c2cc(OC)c(OC)c(OC)c2)c2cc3c(cc2[C@H](O)[C@H]1CO)OCO3,14000,13000,24000,14000,17000,8400,> 30000,> 30000,> 30000,27000,23000,14900,18000,4400,3500,26000,–,14000,14300,29900
COC(=O)[C@@H]1[C@H](c2cc(OC)c(O)c(OC)c2)c2cc3c(cc2[C@@H]2OC(=O)OC[C@@H]12)OCO3,200,400,500,1000,> 30000,400,–,–,–,–,–,–,–,–,–,–,–,–,–,–
COC(=O)[C@@H]1[C@H](c2cc(OC)c(O)c(OC)c2)c2cc3c(cc2[C@H](O)[C@H]1CO)OCO3,100,1020,200,800,90,110,400,500,470,3120,300,860,100,100,100,340,340,100,100,–
